From the supplement of paper PMC11451515

System: SEM cells
Test: cell viability relative to DMSO control; higher = less cytotoxic
Settings: 48 h
Method in brief: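 Viability is expressed as a percentage of DMSO wells within each plate, and cell-free wells serve as background. Seeding densities in the 1536-well plates (5 μl) were 500 cells/well for NOMO1 or SEM leukemia cells and 1000 cells/well for P12-Ichikawa. Each line was adapted for at least four passages in each medium. Library compounds in DMSO were pin-dosed at 47 μM to 0.79 nM (11 points, threefold), and CellTiter-Glo One luminescence was read after 48 h at 37°C.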

[1] = HPLM + 10% dialyzed FBS, 0.000781 µM
[2] = HPLM + 10% dialyzed FBS, 0.00234 µM
[3] = HPLM + 10% dialyzed FBS, 0.00702 µM
[4] = HPLM + 10% dialyzed FBS, 0.0211 µM
[5] = HPLM + 10% dialyzed FBS, 0.0632 µM
[6] = HPLM + 10% dialyzed FBS, 0.19 µM
[7] = HPLM + 10% dialyzed FBS, 0.569 µM
[8] = HPLM + 10% dialyzed FBS, 1.71 µM
[9] = HPLM + 10% dialyzed FBS, 5.12 µM
[10] = HPLM + 10% dialyzed FBS, 15.4 µM
[11] = HPLM + 10% dialyzed FBS, 46.1 µM
[12] = RPMI 5 mM glucose + 10% FBS, 0.000781 µM
[13] = RPMI 5 mM glucose + 10% FBS, 0.00234 µM
[14] = RPMI 5 mM glucose + 10% FBS, 0.00702 µM
[15] = RPMI 5 mM glucose + 10% FBS, 0.0211 µM
[16] = RPMI 5 mM glucose + 10% FBS, 0.0632 µM
[17] = RPMI 5 mM glucose + 10% FBS, 0.19 µM
[18] = RPMI 5 mM glucose + 10% FBS, 0.569 µM
[19] = RPMI 5 mM glucose + 10% FBS, 1.71 µM
[20] = RPMI 5 mM glucose + 10% FBS, 5.12 µM
[21] = RPMI 5 mM glucose + 10% FBS, 15.4 µM
[22] = RPMI 5 mM glucose + 10% FBS, 46.1 µM
[23] = RPMI 5 mM glucose + 10% dialyzed FBS, 0.000781 µM
[24] = RPMI 5 mM glucose + 10% dialyzed FBS, 0.00234 µM
[25] = RPMI 5 mM glucose + 10% dialyzed FBS, 0.00702 µM
[26] = RPMI 5 mM glucose + 10% dialyzed FBS, 0.0211 µM
[27] = RPMI 5 mM glucose + 10% dialyzed FBS, 0.0632 µM
[28] = RPMI 5 mM glucose + 10% dialyzed FBS, 0.19 µM
[29] = RPMI 5 mM glucose + 10% dialyzed FBS, 0.569 µM
[30] = RPMI 5 mM glucose + 10% dialyzed FBS, 1.71 µM
[31] = RPMI 5 mM glucose + 10% dialyzed FBS, 5.12 µM
[32] = RPMI 5 mM glucose + 10% dialyzed FBS, 15.4 µM
[33] = RPMI 5 mM glucose + 10% dialyzed FBS, 46.1 µM

SMILES	cell viability [1] [%]	cell viability [2] [%]	cell viability [3] [%]	cell viability [4] [%]	cell viability [5] [%]	cell viability [6] [%]	cell viability [7] [%]	cell viability [8] [%]	cell viability [9] [%]	cell viability [10] [%]	cell viability [11] [%]	cell viability [12] [%]	cell viability [13] [%]	cell viability [14] [%]	cell viability [15] [%]	cell viability [16] [%]	cell viability [17] [%]	cell viability [18] [%]	cell viability [19] [%]	cell viability [20] [%]	cell viability [21] [%]	cell viability [22] [%]	cell viability [23] [%]	cell viability [24] [%]	cell viability [25] [%]	cell viability [26] [%]	cell viability [27] [%]	cell viability [28] [%]	cell viability [29] [%]	cell viability [30] [%]	cell viability [31] [%]	cell viability [32] [%]	cell viability [33] [%]
Oc1nc(-c2ccc(C(F)(F)F)cc2)nc2c1CSCC2	90.6	95.7	107	50.8	110	106	97.4	97.8	91.1	84.3	79.6	101	102	92.6	39.7	113	107	113	111	114	95.6	86	97.9	96.6	105	47	105	114	111	98.3	93.6	82.6	85.2
COc1c(C)c2c(c(O)c1C/C=C(\C)CCC(=O)O)C(=O)OC2	92.9	104	104	111	113	100	120	111	97	61.2	33.3	102	105	114	109	113	102	118	98.2	77	48.1	29.9	102	104	115	81.9	114	108	100	116	108	64.8	45.6
CC#CCn1c(N2CCC[C@@H](N)C2)nc2c1c(=O)n(Cc1nc(C)c3ccccc3n1)c(=O)n2C	107	114	115	42.6	115	104	112	109	111	116	83.3	105	97.9	105	40.3	114	102	112	108	109	102	88.7	96.8	94.4	88.7	45.6	108	96	108	93.9	93.5	99.1	75.2
CCCCCNC(=O)N1CCC(CN(Cc2ccc(Cl)cc2)Cc2ccc([N+](=O)[O-])s2)C1 (stereo not drawn)												113	118	129	116	134	120	122	126	121	79.5	56.1	113	134	108	107	114	128	121	127	132	102	48.2
O=C(O)C(=O)c1cn(Cc2ccccc2)c2ccc(-c3ccc(OC(F)(F)F)cc3)cc12	102	126	116	117	107	108	109	110	122	46.2	97.5	119	106	104	103	98.7	102	95.2	108	97.3	45.1	88.1	110	94.6	102	99	98.6	84.2	116	89.1	101	30.4	84.2
OCC(O)C(O)C(O)CO (stereo not drawn)	85.4	83.7	98.2	101	103	102	73.8	94.7	91.6	37.5	88.9	89	91.1	92.2	95.9	109	102	80.2	103	97.8	29.8	86.4	103	105	102	101	88.6	89.1	64.6	91.5	109	30.3	93
COc1ccc2c(c1)[C@]13CCCCC1C(C2)N(C)CC3 (stereo partly drawn)	102	116	113	106	116	112	103	100	128	111	129	106	105	115	115	111	126	110	113	126	126	123	101	103	106	114	108	114	118	109	117	108	114
COC(=O)C\1=C(C)\N\C(=C(/C1C2=CC=CC3=NON=C23)C(=O)OC(C)C)C (stereo not drawn)	105	98.6	97.7	105	109	100	95	83.6	110	90.4	80.1	87.2	96.4	107	126	101	100	98.2	95	85.5	88	78.6	98.9	96.9	104	110	111	114	114	95.2	87.2	99.2	70.8
